# Assay results from PMC9126795 (eBioMedicine, 2022).
# Like-named read-outs stand apart in the source and are kept apart here.
# Tested on: patients with HCV and HBV liver cirrhosis
# Assay type: in vivo, human
# [1] = Phase 1 140 mg/m^2/4h (n = 3), Grade 1-2
# [2] = Phase 1 140 mg/m^2/4h (n = 3), Grade 3
# [3] = Phase 1 280 mg/m^2/4h (n = 6), Grade 1-2
# [4] = Phase 1 280 mg/m^2/4h (n = 6), Grade 3
# [5] = Phase 1 380 mg/m^2/4h (n = 6), Grade 1-2
# [6] = Phase 1 380 mg/m^2/4h (n = 6), Grade 3
# [7] = Phase 2a 280 mg/m^2/4h, Phase 1/ 2a (n = 3), Grade 1-2
# [8] = Phase 2a 280 mg/m^2/4h, Phase 1/ 2a (n = 3), Grade 3
# [9] = Phase 2a 280 mg/m^2/4h, Phase 2a only (n = 12), Grade 1-2
# [10] = Phase 2a 280 mg/m^2/4h, Phase 2a only (n = 12), Grade 3
substance,measurement,setting,value
PRI-724,Liver dysfunction at the recommended dose,"Level 2, 280 mg/m^2/4 h",minor and transient
same,AE: Anaemia,[1],0
same,AE: Ascites,[1],0
same,AE: Decreased appetite,[1],0
same,AE: Diarrhea,[1],0
same,AE: Dyspepsia,[1],0
same,AE: Erythema,[1],0
same,AE: Headache,[1],0
same,AE: Hepatic function abnormal,[1],1 (33%)
same,AE: Hypertension,[1],0
same,AE: Hyperuricaemia,[1],0
same,AE: Insomnia,[1],0
same,AE: Muscle spasms,[1],0
same,AE: Nasopharyngitis,[1],1 (33%)
same,AE: Nausea,[1],0
same,AE: Pruritus,[1],0
same,AE: Puncture site pain,[1],0
same,AE: Pyrexia,[1],0
same,AE: Spontaneous bacterial peritonitis,[1],0
same,AE: Viral infection,[1],0
same,AE: Vomiting,[1],0
same,Laboratory abnormality: Alanine aminotransferase increased,[1],0
same,Laboratory abnormality: Aspartate aminotransferase increased,[1],0
same,Laboratory abnormality: Blood creatine phosphokinase increased,[1],0
same,Laboratory abnormality: Blood creatinine increased,[1],0
same,Laboratory abnormality: C-reactive protein increased,[1],0
same,SAE: Anaemia,[1],0
same,SAE: Hepatic function abnormal,[1],0
same,SAE: Spontaneous bacterial peritonitis,[1],0
same,SAE: Viral infection,[1],0
same,AE: Anaemia,[2],0
same,AE: Ascites,[2],0
same,AE: Decreased appetite,[2],0
same,AE: Diarrhea,[2],0
same,AE: Dyspepsia,[2],0
same,AE: Erythema,[2],0
same,AE: Headache,[2],0
same,AE: Hepatic function abnormal,[2],0
same,AE: Hypertension,[2],0
same,AE: Hyperuricaemia,[2],0
same,AE: Insomnia,[2],0
same,AE: Muscle spasms,[2],0
same,AE: Nasopharyngitis,[2],0
same,AE: Nausea,[2],0
same,AE: Pruritus,[2],0
same,AE: Puncture site pain,[2],0
same,AE: Pyrexia,[2],0
same,AE: Spontaneous bacterial peritonitis,[2],0
same,AE: Viral infection,[2],0
same,AE: Vomiting,[2],0
same,Laboratory abnormality: Alanine aminotransferase increased,[2],0
same,Laboratory abnormality: Aspartate aminotransferase increased,[2],0
same,Laboratory abnormality: Blood creatine phosphokinase increased,[2],0
same,Laboratory abnormality: Blood creatinine increased,[2],0
same,Laboratory abnormality: C-reactive protein increased,[2],0
same,SAE: Anaemia,[2],0
same,SAE: Hepatic function abnormal,[2],0
same,SAE: Spontaneous bacterial peritonitis,[2],0
same,SAE: Viral infection,[2],0
same,AE: Anaemia,[3],0
same,AE: Ascites,[3],1 (17%)
same,AE: Decreased appetite,[3],2 (33%)
same,AE: Diarrhea,[3],1 (17%)
same,AE: Dyspepsia,[3],1 (17%)
same,AE: Erythema,[3],0
same,AE: Headache,[3],1 (17%)
same,AE: Hepatic function abnormal,[3],1 (17%)
same,AE: Hypertension,[3],1 (17%)
same,AE: Hyperuricaemia,[3],0
same,AE: Insomnia,[3],1 (17%)
same,AE: Muscle spasms,[3],2 (33%)
same,AE: Nasopharyngitis,[3],1 (17%)
same,AE: Nausea,[3],2 (33%)
same,AE: Pruritus,[3],1 (17%)
same,AE: Puncture site pain,[3],1 (17%)
same,AE: Pyrexia,[3],0
same,AE: Spontaneous bacterial peritonitis,[3],0
same,AE: Viral infection,[3],0
same,AE: Vomiting,[3],2 (33%)
same,Laboratory abnormality: Alanine aminotransferase increased,[3],0
same,Laboratory abnormality: Aspartate aminotransferase increased,[3],0
same,Laboratory abnormality: Blood creatine phosphokinase increased,[3],0
same,Laboratory abnormality: Blood creatinine increased,[3],0
same,Laboratory abnormality: C-reactive protein increased,[3],0
same,SAE: Anaemia,[3],0
same,SAE: Hepatic function abnormal,[3],0
same,SAE: Spontaneous bacterial peritonitis,[3],0
same,SAE: Viral infection,[3],0
same,AE: Anaemia,[4],0
same,AE: Ascites,[4],0
same,AE: Decreased appetite,[4],0
same,AE: Diarrhea,[4],1 (17%)
same,AE: Dyspepsia,[4],0
same,AE: Erythema,[4],0
same,AE: Headache,[4],0
same,AE: Hepatic function abnormal,[4],0
same,AE: Hypertension,[4],0
same,AE: Hyperuricaemia,[4],0
same,AE: Insomnia,[4],0
same,AE: Muscle spasms,[4],0
same,AE: Nasopharyngitis,[4],0
same,AE: Nausea,[4],0
same,AE: Pruritus,[4],0
same,AE: Puncture site pain,[4],0
same,AE: Pyrexia,[4],0
same,AE: Spontaneous bacterial peritonitis,[4],0
same,AE: Viral infection,[4],0
same,AE: Vomiting,[4],0
same,Laboratory abnormality: Alanine aminotransferase increased,[4],1 (17%)
same,Laboratory abnormality: Aspartate aminotransferase increased,[4],1 (17%)
same,Laboratory abnormality: Blood creatine phosphokinase increased,[4],0
same,Laboratory abnormality: Blood creatinine increased,[4],0
same,Laboratory abnormality: C-reactive protein increased,[4],0
same,SAE: Anaemia,[4],0
same,SAE: Hepatic function abnormal,[4],0
same,SAE: Spontaneous bacterial peritonitis,[4],0
same,SAE: Viral infection,[4],0
same,AE: Anaemia,[5],0
same,AE: Ascites,[5],1 (17%)
same,AE: Decreased appetite,[5],1 (17%)
same,AE: Diarrhea,[5],2 (33%)
same,AE: Dyspepsia,[5],0
same,AE: Erythema,[5],0
same,AE: Headache,[5],1 (17%)
same,AE: Hepatic function abnormal,[5],0
same,AE: Hypertension,[5],0
same,AE: Hyperuricaemia,[5],0
same,AE: Insomnia,[5],1 (17%)
same,AE: Muscle spasms,[5],0
same,AE: Nasopharyngitis,[5],0
same,AE: Nausea,[5],2 (33%)
same,AE: Pruritus,[5],0
same,AE: Puncture site pain,[5],0
same,AE: Pyrexia,[5],2 (33%)
same,AE: Spontaneous bacterial peritonitis,[5],0
same,AE: Viral infection,[5],0
same,AE: Vomiting,[5],1 (17%)
same,Laboratory abnormality: Alanine aminotransferase increased,[5],0
same,Laboratory abnormality: Aspartate aminotransferase increased,[5],1 (17%)
same,Laboratory abnormality: Blood creatine phosphokinase increased,[5],1 (17%)
same,Laboratory abnormality: Blood creatinine increased,[5],0
same,Laboratory abnormality: C-reactive protein increased,[5],1 (17%)
same,SAE: Anaemia,[5],0
same,SAE: Hepatic function abnormal,[5],0
same,SAE: Spontaneous bacterial peritonitis,[5],0
same,SAE: Viral infection,[5],0
same,AE: Anaemia,[6],0
same,AE: Ascites,[6],0
same,AE: Decreased appetite,[6],0
same,AE: Diarrhea,[6],0
same,AE: Dyspepsia,[6],0
same,AE: Erythema,[6],0
same,AE: Headache,[6],0
same,AE: Hepatic function abnormal,[6],1 (17%)
same,AE: Hypertension,[6],0
same,AE: Hyperuricaemia,[6],0
same,AE: Insomnia,[6],0
same,AE: Muscle spasms,[6],0
same,AE: Nasopharyngitis,[6],0
same,AE: Nausea,[6],0
same,AE: Pruritus,[6],0
same,AE: Puncture site pain,[6],0
same,AE: Pyrexia,[6],0
same,AE: Spontaneous bacterial peritonitis,[6],0
same,AE: Viral infection,[6],1 (17%)
same,AE: Vomiting,[6],0
same,Laboratory abnormality: Alanine aminotransferase increased,[6],0
same,Laboratory abnormality: Aspartate aminotransferase increased,[6],0
same,Laboratory abnormality: Blood creatine phosphokinase increased,[6],0
same,Laboratory abnormality: Blood creatinine increased,[6],0
same,Laboratory abnormality: C-reactive protein increased,[6],0
same,SAE: Anaemia,[6],0
same,SAE: Hepatic function abnormal,[6],1 (17%)
same,SAE: Spontaneous bacterial peritonitis,[6],0
same,SAE: Viral infection,[6],1 (17%)
same,Serious adverse events (SAEs) observed,"Phase 1/2a, 27 patients",four SAEs among three (one from phase 1 and two from phase 2a) of the 27 patients
same,AE: Anaemia,[7],0
same,AE: Ascites,[7],0
same,AE: Decreased appetite,[7],1 (33%)
same,AE: Diarrhea,[7],1 (33%)
same,AE: Dyspepsia,[7],0
same,AE: Erythema,[7],0
same,AE: Headache,[7],0
same,AE: Hepatic function abnormal,[7],0
same,AE: Hypertension,[7],1 (33%)
same,AE: Hyperuricaemia,[7],0
same,AE: Insomnia,[7],1 (33%)
same,AE: Muscle spasms,[7],0
same,AE: Nasopharyngitis,[7],0
same,AE: Nausea,[7],1 (33%)
same,AE: Pruritus,[7],0
same,AE: Puncture site pain,[7],1 (33%)
same,AE: Pyrexia,[7],0
same,AE: Spontaneous bacterial peritonitis,[7],0
same,AE: Viral infection,[7],0
same,AE: Vomiting,[7],1 (33%)
same,Laboratory abnormality: Alanine aminotransferase increased,[7],0
same,Laboratory abnormality: Aspartate aminotransferase increased,[7],0
same,Laboratory abnormality: Blood creatine phosphokinase increased,[7],0
same,Laboratory abnormality: Blood creatinine increased,[7],0
same,Laboratory abnormality: C-reactive protein increased,[7],0
same,SAE: Anaemia,[7],0
same,SAE: Hepatic function abnormal,[7],0
same,SAE: Spontaneous bacterial peritonitis,[7],0
same,SAE: Viral infection,[7],0
same,AE: Anaemia,[8],0
same,AE: Ascites,[8],0
same,AE: Decreased appetite,[8],0
same,AE: Diarrhea,[8],0
same,AE: Dyspepsia,[8],0
same,AE: Erythema,[8],0
same,AE: Headache,[8],0
same,AE: Hepatic function abnormal,[8],0
same,AE: Hypertension,[8],0
same,AE: Hyperuricaemia,[8],0
same,AE: Insomnia,[8],0
same,AE: Muscle spasms,[8],0
same,AE: Nasopharyngitis,[8],0
same,AE: Nausea,[8],0
same,AE: Pruritus,[8],0
same,AE: Puncture site pain,[8],0
same,AE: Pyrexia,[8],0
same,AE: Spontaneous bacterial peritonitis,[8],0
same,AE: Viral infection,[8],0
same,AE: Vomiting,[8],0
same,Laboratory abnormality: Alanine aminotransferase increased,[8],0
same,Laboratory abnormality: Aspartate aminotransferase increased,[8],0
same,Laboratory abnormality: Blood creatine phosphokinase increased,[8],0
same,Laboratory abnormality: Blood creatinine increased,[8],0
same,Laboratory abnormality: C-reactive protein increased,[8],0
same,SAE: Anaemia,[8],0
same,SAE: Hepatic function abnormal,[8],0
same,SAE: Spontaneous bacterial peritonitis,[8],0
same,SAE: Viral infection,[8],0
same,AE: Anaemia,[9],0
same,AE: Ascites,[9],0
same,AE: Decreased appetite,[9],3 (25%)
same,AE: Diarrhea,[9],2 (17%)
same,AE: Dyspepsia,[9],0
same,AE: Erythema,[9],2 (17%)
same,AE: Headache,[9],1 (8%)
same,AE: Hepatic function abnormal,[9],1 (8%)
same,AE: Hypertension,[9],0
same,AE: Hyperuricaemia,[9],1 (8%)
same,AE: Insomnia,[9],0
same,AE: Muscle spasms,[9],0
same,AE: Nasopharyngitis,[9],1 (8%)
same,AE: Nausea,[9],2 (17%)
same,AE: Pruritus,[9],2 (17%)
same,AE: Puncture site pain,[9],0
same,AE: Pyrexia,[9],0
same,AE: Spontaneous bacterial peritonitis,[9],0
same,AE: Viral infection,[9],0
same,AE: Vomiting,[9],1 (8%)
same,Laboratory abnormality: Alanine aminotransferase increased,[9],2 (17%)
same,Laboratory abnormality: Aspartate aminotransferase increased,[9],3 (25%)
same,Laboratory abnormality: Blood creatine phosphokinase increased,[9],0
same,Laboratory abnormality: Blood creatinine increased,[9],1 (8%)
same,Laboratory abnormality: C-reactive protein increased,[9],0
same,SAE: Anaemia,[9],0
same,SAE: Hepatic function abnormal,[9],0
same,SAE: Spontaneous bacterial peritonitis,[9],0
same,SAE: Viral infection,[9],0
same,AE: Anaemia,[10],2 (17%)
same,AE: Ascites,[10],0
same,AE: Decreased appetite,[10],0
same,AE: Diarrhea,[10],1 (8%)
same,AE: Dyspepsia,[10],0
same,AE: Erythema,[10],0
same,AE: Headache,[10],0
same,AE: Hepatic function abnormal,[10],0
same,AE: Hypertension,[10],1 (8%)
same,AE: Hyperuricaemia,[10],1 (8%)
same,AE: Insomnia,[10],0
same,AE: Muscle spasms,[10],0
same,AE: Nasopharyngitis,[10],0
same,AE: Nausea,[10],0
same,AE: Pruritus,[10],0
same,AE: Puncture site pain,[10],0
same,AE: Pyrexia,[10],0
same,AE: Spontaneous bacterial peritonitis,[10],1 (8%)
same,AE: Viral infection,[10],0
same,AE: Vomiting,[10],0
same,Laboratory abnormality: Alanine aminotransferase increased,[10],1 (8%)
same,Laboratory abnormality: Aspartate aminotransferase increased,[10],0
same,Laboratory abnormality: Blood creatine phosphokinase increased,[10],0
same,Laboratory abnormality: Blood creatinine increased,[10],0
same,Laboratory abnormality: C-reactive protein increased,[10],0
same,SAE: Anaemia,[10],1 (8%)
same,SAE: Hepatic function abnormal,[10],0
same,SAE: Spontaneous bacterial peritonitis,[10],1 (8%)
same,SAE: Viral infection,[10],0
same,"AE liver dysfunction, patients","all patients, 4/27",15%
same,"AE vomiting, patients","all patients, 4/27",15%
same,"AE loss of appetite, patients","all patients, 6/27",22%
same,"AE nausea, patients","all patients, 6/27",22%
same,"AE diarrhoea, patients","all patients, 7/27",26%
same,SAEs related to PRI-724,observed in the 380 mg/m^2/4 h cohort (liver dysfunction: grade 3),One of the four SAEs was possibly related to the PRI-724
